Assay [1] deals with H. pylori ATCC 700392. Nature of the assay: anti-Helicobacter pylori activity, microwell dilution method with MTT. The class given is cell-based. As for the experimental part:
The anti-Helicobacter pylori activity of the PF and NPF as well as the isolated compounds was evaluated against H. pylori ATCC 700392 (type strain, obtained from the American Type Culture Collection unit (ATCC), using microwell dilution method and clarithromycin as standard drug[37]. The detailed procedures were described in the supplementary file.
The anti-Helicobacter pylori activity of the PF and NPF as well as the isolated compounds was evaluated against H. pylori ATCC 700392 (a type strain, obtained from the American Type Culture Collection unit (ATCC), using microwell dilution method and clarithromycin as standard drug ^1. The tested samples were prepared in dimethyl sulfoxide and successive ten twofold dilutions (125- 0.24 µg/mL) were carried out in a 96-well plate. Each microplate well included forty μL of Brain Heart Infusion growth medium and 10% fetal bovine serum (FBS), ten μL of inoculum and fifty μL of the tested sample. The plates were incubated for 3 days, in 5% oxygen, 10% carbon dioxide, 85 % nitrogen atmosphere at 37°C. Forty μL of 3- (4, 5-dimethyl-thiazol-2-yl)- 2,5-diphenyl-tetrazolium bromide (MTT) at a final concentration of 0.5 mg/mL freshly prepared in H2O was added to each well and incubated for 30 min. The bacteria were biologically active when change to purple color was observed ^1. While no change in MTT color indicated inhibition. Solvent control (DMSO) and the standard antibiotic (clarithromycin) were used as negative and positive controls, respectively. The H. pylori inhibition % was calculated using the given formula:
% Inhibition = Abs control – Abs sample × 100 /Abs control.

Assay [2] deals with T1, H. pylori inosine-5′-monophosphate dehydrogenase (HpIMPDH) (Helicobacter pylori, UniProt P56088).
T1 sequence (P56088 1-481): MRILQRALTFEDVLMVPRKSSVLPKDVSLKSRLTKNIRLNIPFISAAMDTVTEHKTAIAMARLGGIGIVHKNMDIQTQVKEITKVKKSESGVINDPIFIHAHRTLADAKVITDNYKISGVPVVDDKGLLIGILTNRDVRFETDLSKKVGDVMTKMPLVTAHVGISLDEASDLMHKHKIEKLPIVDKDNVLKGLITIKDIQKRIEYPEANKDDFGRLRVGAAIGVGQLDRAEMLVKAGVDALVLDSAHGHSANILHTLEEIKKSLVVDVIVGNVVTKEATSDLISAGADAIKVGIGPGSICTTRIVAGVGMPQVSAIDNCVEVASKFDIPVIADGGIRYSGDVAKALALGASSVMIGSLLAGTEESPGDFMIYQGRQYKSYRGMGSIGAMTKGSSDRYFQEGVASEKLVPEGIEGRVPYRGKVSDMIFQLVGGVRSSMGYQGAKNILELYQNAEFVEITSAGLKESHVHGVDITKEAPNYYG
Nature of the assay: In vitro HpIMPDH inhibition assay (NADH fluorescence). The assay is classed as biochemical. More on the design: HpIMPDH inhibitory activity: unit not given here. On the procedure:
The assay was carried out according to Galal[40] and was described in detail in the supplementary file.
(§1) Thus, irigenin was selected to test its HpIMPDH inhibitory activity by monitoring NADH production at concentration range of 10–0.078 µM compared to clarithromycin as standard drug. Also, to examine irigenin selectivity toward the bacterial IMPDH, human hIMPDH2 inhibition potential was assayed.
The assay was carried out in a final volume of two hundred μL in black 96-well plate (Tarsons Products Pvt. Ltd., Kolkata, India) with a reaction buffer composed of one hundred mM KCl, fifty mM Tris–HCl (pH 8.6), and one mM dithiothreitol (DTT). One hundred nM H. pylori inosine-5′-monophosphate dehydrogenase (HpIMPDH) in the presence/absence of the tested compound were used. The assay mixture was then incubated at 37 °C for 10 min, and the reaction was initiated by the adding 250 μM of inosine 5ʹ‐monophosphate (IMP) and 300 μM of nicotinamide adenine dinucleotide (NAD^+) substrate buffer. The assay was allowed to proceed for 45 min at 37 °C.
The formed NADH was measured by recording the fluorescence (excitation 340 nm, emission 440 nm) using PerkinElmer EnVision Multilabel Reader (Waltham, MA) at an interval of one min. DMSO and clarithromycin were used as vehicle control and positive control, respectively. The concentration of the tested sample leading to 50% HpIMPDH inhibition (IC50) was estimated.

The target of assay [3] is T2, Human inosine-5′-monophosphate dehydrogenase (hIMPDH2) (Homo sapiens, UniProt P12268).
T2 construct: purchased NovoCIB SAS (Lyon, France)
Nature of the assay: In vitro hIMPDH2 inhibition assay (NADH absorbance at 340 nm). The class given is biochemical. More on the design: key to hIMPDH2 inhibitory activity: % hIMPDH2 inhibition. The conditions noted are these: for hIMPDH2 inhibitory activity: in % (unit assumed). On the procedure: Human inosine-5′-monophosphate dehydrogenase (hIMPDH2) was purchased from NovoCIB SAS (Lyon, France). […] The detailed procedures were described in the supplementary file.
as §1
Human inosine-5′-monophosphate dehydrogenase (hIMPDH2) was purchased from NovoCIB SAS (Lyon, France). […] The assay was carried out in 96-well plates (Tarsons, 980040). The reaction buffer consisted of hundred mM KCl, hundred mM Tris–HCl (pH 8.6), and five mM DTT, 4% v/v DMSO with or without the tested compound and 0.15 mU of purified hIMPDH2 enzyme per well (from 1.5 mg/mL stock concentration). The enzyme stock solution final volume was 2 μL per well, which was insignificant to cause final assay buffer composition change. Addition of (substrate buffer) 0.2 mM of IMP and 0.2 mM of NAD^+ initiated the assay, then it was allowed to proceed for 30 min at 37 °C. The formed NADH was measured by reading the absorbance at 340 nm. […] The concentration of the tested sample leading to 50% hIMPDH2 inhibition (IC50) was estimated.

Assay [4] deals with T3, human recombinant COX-2 (Homo sapiens, UniProt P35354).
T3 construct: purchased
T3 sequence (P35354 18-604): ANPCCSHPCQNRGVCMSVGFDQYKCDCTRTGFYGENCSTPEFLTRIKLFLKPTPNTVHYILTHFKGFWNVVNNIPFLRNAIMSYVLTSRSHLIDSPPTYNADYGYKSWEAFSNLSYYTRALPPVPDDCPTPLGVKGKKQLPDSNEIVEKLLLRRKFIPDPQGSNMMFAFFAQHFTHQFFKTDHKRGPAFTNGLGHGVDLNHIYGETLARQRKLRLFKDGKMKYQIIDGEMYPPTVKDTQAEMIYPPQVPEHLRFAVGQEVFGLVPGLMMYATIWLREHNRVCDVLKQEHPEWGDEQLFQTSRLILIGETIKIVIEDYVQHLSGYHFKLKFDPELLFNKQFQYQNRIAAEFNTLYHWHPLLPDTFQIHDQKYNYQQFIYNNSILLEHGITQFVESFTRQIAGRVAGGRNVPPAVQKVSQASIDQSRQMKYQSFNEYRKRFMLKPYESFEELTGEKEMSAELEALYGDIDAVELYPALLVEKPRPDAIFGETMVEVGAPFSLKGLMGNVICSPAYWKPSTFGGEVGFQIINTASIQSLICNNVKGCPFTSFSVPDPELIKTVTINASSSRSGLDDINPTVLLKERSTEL
Nature of the assay: COX-2 inhibitory activity, colourimetric COX inhibitor screening assay kit. The class given is biochemical. The settings on record: for SI (COX-1/COX-2): selectivity index calculated as IC50 (COX-1)/(COX-2). As for the experimental part: (§2) The inhibitory COX activity was assayed colourimetrically by examining the inhibition of the ovine COX-1 and human recombinant COX-2 enzymes as described by George et al.[38], using a COX inhibitor screening assay kit. The detailed procedures were described in the supplementary file.
(§3) The inhibitory COX activity was assayed colourimetrically by examining the inhibition of the ovine COX-1 and human recombinant COX-2 enzymes as described by George et al. ^2, using a COX inhibitory screening assay kit. This assay determines the COX peroxidase activity by monitoring the appearance of N,N,N',N'-tetramethyl-p-phenylenediamine (TMPD). Assay buffer (150 μL 0.1 M Tris–HCl pH 8.0), 10 μL heme and 10μL enzyme (COX-1 or COX-2) were added in each well. Ten μL of each tested sample concentration was added to each well and incubated for 15 minutes at 37°C. After incubation, 20 μL of TMPD was added to each well. For initiating the reaction, 10 μL 10 mM arachidonic acid was added and the plates were further incubated for another 2 minutes at 37°C. For terminating the reaction, 50 μL 1 N HCl and saturated stannous chloride were added.
(§4) Reaction mixture containing assay buffer and heme acted as the blank and a mixture with either COX-1 or COX-2 assay buffer and heme acted as the 100% initial activity (IA). […] The absorbances of oxidized TMPD (blue colour) were read in ELISA plate reader at 590 nm. The % inhibition was calculated using the following formula:
(§5) COX % Inhibition= [(100%IA−Inhibitor)/ 100% IA x 100]. Where, IA: 100% initial activity.
(§6) The concentration at which the tested sample produces 50% inhibition of COX-1 and/or COX-2 (IC50) was determined. The selectivity index (SI) was calculated also as IC50 (COX-1)/ (COX-2).

For assay [5], the target named is T4, ovine COX-1 (Ovis aries, UniProt P05979).
T4 construct: purchased
T4 sequence (P05979 25-600): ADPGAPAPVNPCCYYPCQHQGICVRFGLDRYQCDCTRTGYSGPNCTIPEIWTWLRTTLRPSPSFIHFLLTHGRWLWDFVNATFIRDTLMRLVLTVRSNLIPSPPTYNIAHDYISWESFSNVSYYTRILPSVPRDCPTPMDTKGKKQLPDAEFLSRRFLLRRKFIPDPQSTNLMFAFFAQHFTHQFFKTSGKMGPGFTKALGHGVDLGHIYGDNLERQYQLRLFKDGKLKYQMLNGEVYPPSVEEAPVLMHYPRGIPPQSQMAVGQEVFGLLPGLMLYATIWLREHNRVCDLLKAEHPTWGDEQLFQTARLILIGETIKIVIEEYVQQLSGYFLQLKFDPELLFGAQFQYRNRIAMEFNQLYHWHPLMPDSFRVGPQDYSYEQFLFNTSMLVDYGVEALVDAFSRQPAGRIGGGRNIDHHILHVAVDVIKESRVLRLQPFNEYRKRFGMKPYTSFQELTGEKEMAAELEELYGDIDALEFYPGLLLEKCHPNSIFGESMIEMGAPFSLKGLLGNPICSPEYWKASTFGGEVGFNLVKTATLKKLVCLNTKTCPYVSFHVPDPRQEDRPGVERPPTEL
Nature of the assay: COX-1 inhibitory activity, colourimetric COX inhibitor screening assay kit. The class given is biochemical. The conditions noted are these: ovine COX-1; ND = not detected. On the procedure: as §2, §3, §4, §5, §6

[6] abbreviates: Helicobacter pylori, ATCC700392; read-out: MIC (H. pylori).
The mark [7] stands for this setting: sample conc. 0.078 (range 10–0.078 µM).
[8] abbreviates: sample conc. 0.156 (range 10–0.078 µM).
Where [9] appears, read: sample conc. 0.313 (range 10–0.078 µM).
Setting [10] is: sample conc. 0.625 (range 10–0.078 µM).
Where [11] appears, read: sample conc. 1.25 (range 10–0.078 µM).
Where [12] appears, read: sample conc. 2.5 (range 10–0.078 µM).
Where [13] appears, read: sample conc. 5 (range 10–0.078 µM).
The mark [14] stands for this setting: sample conc. 10 (range 10–0.078 µM).
The mark [15] stands for this setting: concentration required for 100% inhibition; H. pylori ATCC 700392; ND = not detected.

Converted amounts (≈) assume the structure as drawn. “And” between values parts separate entries of the source, which are not always exact repeats. Identical values can stand only once. Like-named read-outs stand apart in the source and are kept apart here. Where only a bound is given, the exact number is not on record here.

As for `CC[C@H]1OC(=O)[C@H](C)[C@@H](O[C@H]2C[C@@](C)(OC)[C@@H](O)[C@H](C)O2)[C@H](C)[C@@H](O[C@@H]2O[C@H](C)C[C@H](N(C)C)[C@H]2O)[C@](C)(OC)C[C@@H](C)C(=O)[C@H](C)[C@@H](O)[C@]1(C)O` [Clarithromycin, clarithromycin, reference compound], the MIC in assay [1] (setting [6]) is 1.95 µg/mL and 2.61 µM. The results for the IC50 in assay [2] and in assay [3] were 510 ± 580 nM and 3100 ± 2100 nM, respectively. For the same compound, the HpIMPDH inhibitory activity came to 9.14 ± 1.70 in assay [2] (setting [7]); 21.82 ± 2.10 in assay [2] (setting [8]); 38.25 ± 1.50 in assay [2] (setting [9]); 56.06 ± 0.58 in assay [2] (setting [10]); 69.31 ± 2.10 in assay [2] (setting [11]); 81.22 ± 1.60 in assay [2] (setting [12]). Also, the HpIMPDH inhibitory activity in assay [2] (setting [13]) and in assay [2] (setting [14]) was 100 ± 0.00 in each case. Besides, the hIMPDH2 inhibitory activity was determined as 0.00 in assay [3] (setting [7]); 0.00 in assay [3] (setting [8]); 9.74 ± 0.67 in assay [3] (setting [9]); 19.35 ± 1.50 in assay [3] (setting [10]); 27.32 ± 1.70 in assay [3] (setting [11]); 46.32 ± 2.20 in assay [3] (setting [12]). For the same compound, the hIMPDH2 inhibitory activity in assay [3] (setting [13]) was 60.24 ± 1.50; in assay [3] (setting [14]), 76.32 ± 0.50.
As to `O=c1cc(-c2ccc(O)c(O)c2)oc2c([C@@H]3O[C@H](CO)[C@@H](O)[C@H](O)[C@H]3O)c(O)cc(O)c12` [Orientin (P2), luteolin-8-C-β-glucopyranoside], in assay [4], the “SI (COX-1/COX-2)” value was 1.58. Besides, the MIC in assay [1] (Helicobacter pylori, ATCC700392, read-out: MIC (H. pylori)) was 15.5 µg/mL and 34.6 µM; in assay [1] (concentration required for 100% inhibition; H. pylori ATCC 700392; read-out: MIC (H. pylori)) it was 34.64 µM (≈ 15.5 µg/mL). The “MIC (H. pylori)” value in assay [1] (setting [15]) worked out at 15.53 µg/mL (≈ 34.6 µM).
For the compound `COc1c(O[C@@H]2O[C@H](CO)[C@@H](O)[C@H](O)[C@H]2O)cc2occ(-c3ccc(O)cc3)c(=O)c2c1O` [Tectoridin (P1), tectorigenin-7-O-β-D-glucoside], in assay [4] (human recombinant COX-2, ND = not detected), the “IC50 (COX-2)” value was “no inhibition”. Also, the minimal inhibitory concentration (MIC) in assay [1] (setting [6]) is > 125 µg/mL and > 270 µM. In addition, the “MIC (H. pylori)” value is > 125 µg/mL in assay [1] (setting [15]) and “no activity” in assay [1] (concentration required for 100% inhibition; H. pylori ATCC 700392; ND = not detected; listed as tectoridine (P1)). Further, the “IC50 (COX-1)” value in assay [5] was “no inhibition”.
Consider `CC[C@H](/C=C/[C@@H](C)[C@H]1CC[C@H]2[C@@H]3CC=C4C[C@@H](O)CC[C@]4(C)[C@H]3CC[C@]12C)C(C)C` [Stigmasterol (N2), stigmasterol], for which, in assay [4], the “SI (COX-1/COX-2)” value is reported as 1.33. The “MIC (H. pylori)” value in assay [1] (setting [15]) was “no H. pylori inhibitory potential”.

The record behind these values is PMC9259591, “Irigenin, a novel lead from Iris confusa for management of Helicobacter pylori infection with selective COX-2 and HpIMPDH inhibitory potential” (Scientific Reports, 2022).
